Experimental data: US10765643B2, “Use of cannabidiol in the treatment of epilepsy” (GW Pharma Limited, priority 2014, dated 2020)

Legend:
[1] = system: seizures after pro-convulsant drugs or an electric current; settings: mice; cited from earlier work
Lennox-Gastaut syndrome = settings: one child with Lennox-Gastaut syndrome, CBD in an oily solution; cited from earlier work
[2] = system: seizures associated with Aicardi Syndrome; assay: Expanded access compassionate use program: CBD added to baseline AED regimen, seizure frequency from seizure diaries; type: in vivo, human
Method: Of 137 children and young adults with severe, childhood onset treatment-resistant epilepsy (TRE), 14 suffered from Aicardi syndrome. These subjects were tested with a highly purified extract of cannabidiol (CBD) obtained from a cannabis plant. The participants in the study were part of an expanded access compassionate use program for CBD.
All of these patients diagnosed with Aicardi Syndrome presented with multiple seizure types which included
focal seizures with impairment; infantile spasm; clonic seizures; tonic seizures; tonic-clonic seizures; atonic seizures; myoclonic seizures; absence seizures; and focal seizures evolving to secondary generalised seizures.
All patients entered a baseline period of 4 weeks when parents/caregivers kept prospective seizure diaries, noting all countable motor seizure types.
The patients then received a highly purified CBD extract (greater than 98% CBD w/w) in sesame oil, of known and constant composition, at a dose of 5 mg/kg/day in addition to their baseline anti-epileptic drug (AED) regimen.
Laboratory testing for hematologic, liver, kidney function, and concomitant AED levels was performed at baseline, and after CBD therapy.
All patients were taking at least two concomitant anti-epileptic drugs. These included clobazam; levetiracetam; topiramate; stiripentol; phenobarbital; lacsamide; valproic acid; zonisamide. The average number of concomitant antiepileptic drugs being taken was 2.7.
There were 14 children and young adult patients who received at least 3 months of treatment all of whom suffered from treatment-resistant epilepsy which is characterised by Aicardi Syndrome.
The change from baseline in the number of different seizures and total number of seizures after 12 weeks treatment are summarized in Table 7 below.

[3] = Solubility of drug substance in water; type: physicochemical
Text: The drug substance, CBD is insoluble in water. Sesame oil was selected as an excipient to solubilize the drug substance.

seizures [4] = settings: 200 mg/day pure CBD, four adult patients; seizure frequency unchanged in the remainder; cited from earlier work
generalized epilepsy = settings: eight adult patients with generalized epilepsy; cited from earlier work
seizures [5] = settings: 200 mg/day pure CBD, twelve institutionalized adult patients, open label; cited from earlier work
seizures [6] = settings: Consroe et al., 1977; cited from earlier work
[7] = 14 Aicardi Syndrome patients, after 12 weeks treatment, CBD 5 up to 25 mg/kg/day plus concomitant AED
[8] = Aicardi Syndrome patients, after 3 months of therapy

| Compound | prevention of seizures [1] | seizure frequency (Lennox-Gastaut syndrome) | Average change in baseline (%) Convulsive seizures [2, 7] | Average change in baseline (%) Focal seizures with impairment [2, 7] | Average change in baseline (%) Infantile spasm [2, 7] | Average change in baseline (%) Total seizures [2, 7] | reduction in convulsive seizures [2, 8] | reduction in focal seizures with impairment [2, 8] | reduction of infantile spasms [2, 8] | reduction in total seizures ([2]; Aicardi Syndrome patients, after 3 months of therapy, average decrease) | focal onset seizures evolving to secondary generalisation ([2]; one patient, week 12, 47 seizures at baseline, earlier stage of program) | tonic-clonic seizures ([2]; other patient, week 12, 7 seizures at baseline, earlier stage of program) | tonic seizures ([2]; other patient, week 12, 67 seizures at baseline, earlier stage of program) | solubility in water [3] | patients who became seizure free (seizures [4]) | patients with marked reduction of seizures (generalized epilepsy) | controlling seizures (seizures [5]) | pro-convulsant effect (seizures [6]) |
| --- | --- | --- | --- | --- | --- | --- | --- | --- | --- | --- | --- | --- | --- | --- | --- | --- | --- | --- |
| C=C(C)[C@@H]1CCC(C)=C[C@H]1c1c(O)cc(CCCCC)cc1O [CBD, Cannabidiol] | able to prevent seizures | improvement | −77% | −62% | −55.5% | −69% | 77% | 62% | 55.5% | 69% | 17 per month | 5 per month | 6 per month | insoluble | two of the four | 4 | ineffective | – |
| CCCCCc1cc(O)c2c(c1)OC(C)(C)[C@@H]1CCC(C)=C[C@@H]21 [THC, Tetrahydro- cannabinol] | – | – | – | – | – | – | – | – | – | – | – | – | – | – | – | – | – | pro-convulsant |
